Measurements taken from ChEMBL document CHEMBL1201862, “PubChem BioAssay data set” (2004).
The source made the active and inactive calls.

Key:
cells = assay type: functional, cell-based
[1] = target: T1, Nuclear receptor subfamily 0 group B member 1 (Homo sapiens, UniProt P51843); assay type: functional, cell-based;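 note: HEK293T cells transfected with SF-1 and DAX-1 plus StAR promoter luciferase reporter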
T1 sequence (P51843 whole entry): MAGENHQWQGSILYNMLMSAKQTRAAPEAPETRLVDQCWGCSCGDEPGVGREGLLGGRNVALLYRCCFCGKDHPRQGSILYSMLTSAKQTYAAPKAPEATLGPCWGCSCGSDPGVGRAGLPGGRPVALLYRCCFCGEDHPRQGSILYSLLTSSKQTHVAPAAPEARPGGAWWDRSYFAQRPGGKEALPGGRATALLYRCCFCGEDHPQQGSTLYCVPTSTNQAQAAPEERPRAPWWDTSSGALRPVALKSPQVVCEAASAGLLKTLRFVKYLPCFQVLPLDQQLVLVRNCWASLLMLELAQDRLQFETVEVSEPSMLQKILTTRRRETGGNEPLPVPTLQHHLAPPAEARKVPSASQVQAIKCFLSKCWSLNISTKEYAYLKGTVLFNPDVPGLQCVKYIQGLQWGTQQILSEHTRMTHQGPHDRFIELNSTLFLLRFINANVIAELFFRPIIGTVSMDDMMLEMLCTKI

[2] = target: Photoreceptor-specific nuclear receptor (Homo sapiens, UniProt Q9Y5X4); assay type: functional, cell-based;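 note: CHO-S cells with Gal4-NCOR and VP16-NR2E3 two-hybrid luciferase reporter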
Photoreceptor-specific nuclear receptor, sequence (Q9Y5X4 whole entry, the tested form may be a part): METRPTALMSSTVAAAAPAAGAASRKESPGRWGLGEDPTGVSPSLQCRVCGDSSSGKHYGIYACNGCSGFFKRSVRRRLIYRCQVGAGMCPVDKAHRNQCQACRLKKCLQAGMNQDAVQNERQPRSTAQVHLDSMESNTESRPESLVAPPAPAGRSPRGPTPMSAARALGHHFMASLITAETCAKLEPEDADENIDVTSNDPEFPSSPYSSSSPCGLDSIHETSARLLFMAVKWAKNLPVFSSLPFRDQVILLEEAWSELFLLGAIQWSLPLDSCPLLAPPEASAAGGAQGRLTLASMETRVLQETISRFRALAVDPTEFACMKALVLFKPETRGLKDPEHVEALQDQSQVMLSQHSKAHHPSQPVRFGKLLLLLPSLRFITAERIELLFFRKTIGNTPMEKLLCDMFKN

Vero = experiment: viability loss in Vero cells – cell-based, plate reader, cherry-pick samples, cytotoxicity control, dose response (AID 687020); assay type: functional; settings: Chlorocebus sabaeus
[3] = target: Potassium voltage-gated channel subfamily KQT member 2 (Rattus norvegicus, UniProt O88943); experiment: blockers of KCNQ2 channel current – cell-based, automated electrophysiology, set II, rat KCNQ2, dose response (AID 588637); assay type: functional
Potassium voltage-gated channel subfamily KQT member 2, sequence (O88943 whole entry, the tested form may be a part): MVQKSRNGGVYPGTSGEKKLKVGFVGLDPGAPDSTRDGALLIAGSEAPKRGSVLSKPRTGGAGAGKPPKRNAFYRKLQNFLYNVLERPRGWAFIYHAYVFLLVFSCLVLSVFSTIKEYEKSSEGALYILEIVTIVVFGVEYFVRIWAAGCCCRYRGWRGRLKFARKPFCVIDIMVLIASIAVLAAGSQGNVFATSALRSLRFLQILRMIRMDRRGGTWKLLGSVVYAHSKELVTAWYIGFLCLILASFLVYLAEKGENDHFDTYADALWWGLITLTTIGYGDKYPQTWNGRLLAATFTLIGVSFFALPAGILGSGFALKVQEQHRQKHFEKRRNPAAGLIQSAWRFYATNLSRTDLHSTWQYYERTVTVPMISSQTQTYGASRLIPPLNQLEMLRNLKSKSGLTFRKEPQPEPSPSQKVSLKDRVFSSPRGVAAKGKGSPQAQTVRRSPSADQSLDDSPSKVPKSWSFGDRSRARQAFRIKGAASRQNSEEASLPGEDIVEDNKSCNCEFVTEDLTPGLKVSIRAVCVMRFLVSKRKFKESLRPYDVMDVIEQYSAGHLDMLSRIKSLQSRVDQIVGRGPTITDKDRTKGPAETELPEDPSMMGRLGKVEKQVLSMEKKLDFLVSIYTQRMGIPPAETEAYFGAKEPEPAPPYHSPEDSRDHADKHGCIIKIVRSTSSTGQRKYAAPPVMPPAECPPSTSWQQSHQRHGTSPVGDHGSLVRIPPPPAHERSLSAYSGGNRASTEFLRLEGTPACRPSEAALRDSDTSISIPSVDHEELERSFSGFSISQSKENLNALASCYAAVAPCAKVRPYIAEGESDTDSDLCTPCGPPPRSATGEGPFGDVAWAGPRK

[4] = target: Hepatocyte nuclear factor 4-alpha (Homo sapiens, UniProt P41235); assay type: functional, cell-based;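 note: biochemical luminescence-based dose-response counterscreen measuring inhibition of HNF4 dimerization, run alongside a screen for blockers of ABHD5–perilipin-5 interaction; split luciferase complementation of HNF4 fusion proteins in cell lysate measuring dimerization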
Hepatocyte nuclear factor 4-alpha, sequence (P41235 whole entry, the tested form may be a part): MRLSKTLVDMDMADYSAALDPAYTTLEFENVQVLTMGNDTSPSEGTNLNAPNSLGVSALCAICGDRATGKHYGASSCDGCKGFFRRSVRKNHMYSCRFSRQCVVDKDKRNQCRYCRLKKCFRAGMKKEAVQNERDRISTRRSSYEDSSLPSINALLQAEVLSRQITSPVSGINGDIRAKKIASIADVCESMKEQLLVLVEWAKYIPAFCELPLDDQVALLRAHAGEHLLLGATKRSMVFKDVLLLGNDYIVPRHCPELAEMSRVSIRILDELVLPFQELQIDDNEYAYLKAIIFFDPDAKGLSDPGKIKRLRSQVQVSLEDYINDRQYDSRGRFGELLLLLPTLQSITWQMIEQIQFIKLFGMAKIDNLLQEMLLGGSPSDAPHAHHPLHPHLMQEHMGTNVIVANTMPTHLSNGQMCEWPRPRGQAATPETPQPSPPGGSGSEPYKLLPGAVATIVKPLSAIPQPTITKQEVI

Beta-lactamase [5] = target: Beta-lactamase (Salmonella choleraesuis (strain SC-B67), UniProt Q5J463); experiment: Epi-absorbance-based counterscreen for selective VIM-2 inhibitors: dose response biochemical high throughput screening assay to identify inhibitors of TEM-1 serine-beta-lactamase.
Beta-lactamase (Salmonella choleraesuis (strain SC-B67), UniProt Q5J463), sequence (Q5J463 whole entry): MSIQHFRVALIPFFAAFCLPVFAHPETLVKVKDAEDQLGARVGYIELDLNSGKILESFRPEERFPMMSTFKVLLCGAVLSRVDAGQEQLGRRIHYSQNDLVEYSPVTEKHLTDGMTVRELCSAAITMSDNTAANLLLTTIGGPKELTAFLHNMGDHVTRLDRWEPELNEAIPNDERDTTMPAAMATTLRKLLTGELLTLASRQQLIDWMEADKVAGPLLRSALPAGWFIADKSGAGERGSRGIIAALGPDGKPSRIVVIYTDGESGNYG

Beta-lactamase [6] = target: T2, Beta-lactamase (Pseudomonas aeruginosa, UniProt Q79MP6); experiment: inhibition of IMP-1 beta-lactamase activity – biochemical, epi-absorbance, selectivity assay for VIM-2 inhibitor project, dose response (AID 1920)
T2 sequence (Q79MP6 whole entry): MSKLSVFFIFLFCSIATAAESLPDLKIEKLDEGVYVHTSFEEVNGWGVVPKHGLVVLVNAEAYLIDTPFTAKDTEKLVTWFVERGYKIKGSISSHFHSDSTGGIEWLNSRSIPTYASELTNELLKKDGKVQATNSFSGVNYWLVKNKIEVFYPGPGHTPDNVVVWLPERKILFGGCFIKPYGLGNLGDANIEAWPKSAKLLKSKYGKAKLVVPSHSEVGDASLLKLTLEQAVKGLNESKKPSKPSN

Beta Lactamase [7] = target: T3, Beta Lactamase (Pseudomonas aeruginosa, UniProt Q932Y6); experiment: concentration-dependent VIM-2 enzyme inhibition – biochemical, epi-absorbance readout, selective inhibitors, dose response (AID 1919)
T3 sequence (Q932Y6 whole entry): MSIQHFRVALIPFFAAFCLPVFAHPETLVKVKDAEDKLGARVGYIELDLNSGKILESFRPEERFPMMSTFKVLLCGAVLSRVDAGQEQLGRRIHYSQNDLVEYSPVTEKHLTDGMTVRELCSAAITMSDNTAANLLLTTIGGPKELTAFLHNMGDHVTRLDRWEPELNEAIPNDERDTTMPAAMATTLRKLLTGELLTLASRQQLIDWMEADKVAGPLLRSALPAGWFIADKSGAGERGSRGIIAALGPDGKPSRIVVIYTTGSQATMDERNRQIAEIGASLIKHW

Beta-lactamase [8] = target: T2, Beta-lactamase; experiment: […] counterscreen for selective VIM-2 inhibitors: dose response biochemical high throughput screening assay to identify inhibitors of IMP-1 metallo-beta-lactamase.
Beta Lactamase [9] = target: T3, Beta Lactamase; experiment: VIM-2 CCF2 hydrolysis inhibition, assay artifact filter – biochemical, FRET readout, CCF2 substrate, artefact control for selective VIM-2 inhibitor project, dose response (AID 1926)
[10] = target: DNA dC->dU-editing enzyme APOBEC-3A (Homo sapiens, UniProt P31941); experiment: A3A deaminase inhibition for selectivity – biochemical, dose response (AID 504722); assay type: functional
DNA dC->dU-editing enzyme APOBEC-3A, sequence (P31941 whole entry): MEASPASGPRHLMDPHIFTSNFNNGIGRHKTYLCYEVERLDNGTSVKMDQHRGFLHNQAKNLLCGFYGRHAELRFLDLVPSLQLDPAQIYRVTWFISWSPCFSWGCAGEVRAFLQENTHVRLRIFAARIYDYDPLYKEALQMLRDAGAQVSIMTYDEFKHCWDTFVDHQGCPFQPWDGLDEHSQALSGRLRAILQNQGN

[11] = target: DNA dC->dU-editing enzyme APOBEC-3G (Homo sapiens, UniProt Q9HC16); experiment: Dose Response confirmation of small molecule APOBEC3G DNA Deaminase Inhibitors via a fluorescence-based single-stranded DNA deaminase assay. [Related pubchem assays (depositor defined):AID493012, AID493028]; assay type: functional
DNA dC->dU-editing enzyme APOBEC-3G, sequence (Q9HC16 whole entry): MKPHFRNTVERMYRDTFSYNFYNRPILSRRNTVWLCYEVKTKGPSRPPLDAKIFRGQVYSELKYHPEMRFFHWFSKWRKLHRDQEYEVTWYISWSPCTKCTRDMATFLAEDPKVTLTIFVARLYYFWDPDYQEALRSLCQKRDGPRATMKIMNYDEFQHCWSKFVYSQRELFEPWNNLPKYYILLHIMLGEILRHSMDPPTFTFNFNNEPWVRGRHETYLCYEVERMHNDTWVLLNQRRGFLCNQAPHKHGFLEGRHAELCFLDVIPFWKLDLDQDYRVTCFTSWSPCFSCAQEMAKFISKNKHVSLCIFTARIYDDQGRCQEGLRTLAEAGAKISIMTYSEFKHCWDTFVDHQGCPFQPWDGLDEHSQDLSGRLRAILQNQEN

HEK293 = experiment: EBV LMP1 TES2 canonical NF-kB signalling blockers – cell-based, HEK293, luciferase, cherry-pick, dose response (AID 588343); assay type: functional; settings: Homo sapiens

For `COc1ccccc1NS(=O)(=O)c1cc(NC(=O)c2ccc(NC(C)=O)cc2)ccc1N1CCOCC1`, the IC50 (cells) was > 67.5 µM (inactive) and the IC50 [1] was > 67.5 µM (inactive).
With `CCOC(=O)N1CCN(C(=O)c2ccc(S(=O)(=O)Nc3ccc(C)cc3)cc2)CC1` the IC50 [2] was 5.96 µM (active).
In the case of `COc1ccc(C)cc1N(CC(=O)Nc1ccc(S(=O)(=O)N2CCOCC2)cc1)S(C)(=O)=O`, the AC50 (Vero) is reported as 29.5 µM (active).
For `CCc1nc2ccc(F)cc2c(C(=O)NC2CCCCC2C)c1C` (centres undefined), the IC50 [3] was 0.636 µM (active).
In the case of `CC(C)(C)NC(=O)C(c1ccc(-c2ccccc2)cc1)n1c(=O)c(-c2ccco2)nc2ccccc21` (centres undefined), the IC50 [4] is reported as 1.91 µM (active).
For `CC(=C/c1ccccc1)/C=N/n1c(S)nnc1-c1ccncc1`, the IC50 (Beta-lactamase [5]) was > 59.6 µM (inactive), the IC50 (Beta-lactamase [6]) was > 59.6 µM (inactive) and the IC50 (Beta Lactamase [7]) was > 59.6 µM (inactive). For the same molecule, the IC50 (Beta-lactamase [8]) was > 59.6 µM (inactive), the IC50 (Beta Lactamase [9]) was 3.26 µM (active) and the IC50 [10] was > 100 µM (inactive). For the same molecule, the IC50 [11] was 2.33 µM (active) and the AC50 (HEK293) was 5.9 µM (active).
